Laboratory results from article PMC8373063 (2021).

Key:
[1] = tested on: RNA Seq6 (RNA, single strand) UGAAGGAAGGU; test: fluorescence polarization; details: 100 mM NaCl; 20 mM HEPES, 25 °C, 0.5 μM compound
[2] = tested on: DNA Seq6 (DNA, single strand) TGAAGGAAGGT; test: fluorescence polarization; details: 100 mM NaCl, 1 mM MgCl2; 20 mM HEPES, 25 °C, 0.5 μM compound
[3] = tested on: DNA Seq6 (DNA, single strand) TGAAGGAAGGT; test: fluorescence polarization; details: 100 mM NaCl, 1 mM MgCl2; 20 mM HEPES, 25 °C, 0.5 μM compound; remark: listed apart in the source
[4] = tested on: RNA Seq6 (RNA, single strand) UGAAGGAAGGU; test: fluorescence polarization; details: 100 mM NaCl; 20 mM HEPES, 25 °C, 0.5 μM compound; remark: listed apart in the source
[5] = tested on: RNA Seq4 (RNA, single strand) AAGAAGGAAGGUGC; test: fluorescence polarization; details: 100 mM NaCl; 20 mM HEPES, 25 °C, 0.5 μM compound
[6] = tested on: RNA Seq4 (immobilised) (RNA, single strand) AAGAAGGAAGGUGC; test: SPR, immobilised RNA; details: running buffer not shown; SMN-C5 up to 40 μM
[7] = tested on: DNA Seq6 (DNA, single strand) TGAAGGAAGGT; test: competitive fluorescence polarization; details: 100 mM NaCl, 1 mM MgCl2, 20 mM HEPES, tracer 0.5 μM SMN-C2 displaced from 25 μM DNA Seq6

Row | Structure (SMILES) | Kd [1] | Kd [2] | other results
1 | CN1CCN(c2cc(F)c3cc(-c4cccc(Cl)c4)c(=O)oc3c2)CC1 | 32.8 ± 5.6 µM | 18.7 ± 4.0 µM | –
2 | Cc1cn2cc(-c3cc4ccc(N5CCN[C@@H](C)C5)cc4oc3=O)nc2c(C)n1 | – | – | Kd [4]: 18.5 ± 5.4 µM; Kd [5]: 25.4 ± 7.3 µM; Kd [3]: 2.9 ± 0.3 µM
3 | CN1CCN(c2cc(F)c3cc(-c4ccc(Cl)cc4)c(=O)oc3c2)CC1 | 30.9 ± 6.7 µM | 9.9 ± 0.9 µM | –
4 | Cc1cn2cc(-c3cc(=O)n4cc(N5CCN(C)CC5)ccc4n3)cc(F)c2n1 | – | – | Kd [6]: 8.0 µM; apparent Kd [7]: 5.8 ± 2.5 µM
5 | CN1CCN(c2ccc3cc(-c4ccccc4Cl)c(=O)oc3c2)CC1 | > >100 μM | – | Kd [3]: > 100 µM
6 | Cc1c(-c2ccc(Cl)cc2)c(=O)oc2cc(N3CCN(C)CC3)ccc12 | > >100 μM | > >100 μM | –

Continued, in another order:

Row | Kd [1] | Kd [2] | Structure (SMILES) | other results
7 | > >100 μM | > >100 μM | Cc1c(-c2cccc(Cl)c2)c(=O)oc2cc(N3CCN(C)CC3)ccc12 | –
8 | 11.4 ± 0.7 µM | – | COc1cn2cc(-c3cc4ccc(N5CCNCC5)cc4oc3=O)nc2cn1 | Kd [3]: 1.4 ± 0.2 µM
9 | 35.9 ± 14.8 µM | 13.9 ± 1.1 µM | CN1CCN(c2ccc3cc(-c4cccc(Cl)c4)c(=O)oc3c2)CC1 | –
10 | 51.2 ± 4.9 µM | 4.0 ± 0.3 µM | Cc1cn2cc(-c3cc4ccc(N5CCN(CCNC(=O)OC(C)(C)C)[C@@H](C)C5)cc4oc3=O)nc2c(C)n1 | Kd [5]: 37.5 ± 14.0 µM
11 | 14.5 ± 2.3 µM | 2.8 ± 0.5 µM | O=c1oc2cc(N3CCNCC3)ccc2cc1-c1cn2ccccc2n1 | –
12 | 30.6 ± 12.3 µM | 8.2 ± 0.7 µM | CN1CCN(c2ccc3cc(-c4ccc(Cl)cc4)c(=O)oc3c2)CC1 | –
